Data set [1] concerns HER2. Briefly: HER2 degradation in BT-474 cells (Method 1, Western blot). It is filed as cell-based, human. As to conditions: 0.5 μM, overnight. The protocol: […]. The resulting supernatant used as the cytosol fractions is dissolved with sample buffer for SDS-PAGE and run on a SDS-PAGE gel, blotted onto a nitrocellulose membrane by using semi-dry transfer. Non-specific binding to nitrocellulose is blocked with 5% skim milk in TBS with 0.5% Tween at room temperature for 1 hour, then probed with anti-HER2/ErB2 mAb (rabbit IgG, #2242, Cell Signaling) and anti-Tubulin (T9026, Sigma) as housekeeping control protein. HRP-conjugated goat anti-rabbit IgG (H+L) and HRP-conjugated horse anti-mouse IgG (H+L) are used as secondary Ab (#7074, #7076, Cell Signaling) and LumiGLO reagent, 20× Peroxide (#7003, Cell Signaling) is used for visualization. The Hsp90 client protein HER2 is degraded when cells are treated with Hsp90-targeting moieties or SDC-TRAPs of the invention.

The test system of data set [2] is FGF-over VEGF-mediated target signaling. As to conditions: in mice; cited from earlier work.
The conditions of data set [3]: in vivo; cited from earlier work.
The target of another data set is T1, JAK2V617F (Homo sapiens, UniProt O60674, V617F).
T1 construct: host or cells: Ba/F3
T1 sequence (O60674 whole entry V617F): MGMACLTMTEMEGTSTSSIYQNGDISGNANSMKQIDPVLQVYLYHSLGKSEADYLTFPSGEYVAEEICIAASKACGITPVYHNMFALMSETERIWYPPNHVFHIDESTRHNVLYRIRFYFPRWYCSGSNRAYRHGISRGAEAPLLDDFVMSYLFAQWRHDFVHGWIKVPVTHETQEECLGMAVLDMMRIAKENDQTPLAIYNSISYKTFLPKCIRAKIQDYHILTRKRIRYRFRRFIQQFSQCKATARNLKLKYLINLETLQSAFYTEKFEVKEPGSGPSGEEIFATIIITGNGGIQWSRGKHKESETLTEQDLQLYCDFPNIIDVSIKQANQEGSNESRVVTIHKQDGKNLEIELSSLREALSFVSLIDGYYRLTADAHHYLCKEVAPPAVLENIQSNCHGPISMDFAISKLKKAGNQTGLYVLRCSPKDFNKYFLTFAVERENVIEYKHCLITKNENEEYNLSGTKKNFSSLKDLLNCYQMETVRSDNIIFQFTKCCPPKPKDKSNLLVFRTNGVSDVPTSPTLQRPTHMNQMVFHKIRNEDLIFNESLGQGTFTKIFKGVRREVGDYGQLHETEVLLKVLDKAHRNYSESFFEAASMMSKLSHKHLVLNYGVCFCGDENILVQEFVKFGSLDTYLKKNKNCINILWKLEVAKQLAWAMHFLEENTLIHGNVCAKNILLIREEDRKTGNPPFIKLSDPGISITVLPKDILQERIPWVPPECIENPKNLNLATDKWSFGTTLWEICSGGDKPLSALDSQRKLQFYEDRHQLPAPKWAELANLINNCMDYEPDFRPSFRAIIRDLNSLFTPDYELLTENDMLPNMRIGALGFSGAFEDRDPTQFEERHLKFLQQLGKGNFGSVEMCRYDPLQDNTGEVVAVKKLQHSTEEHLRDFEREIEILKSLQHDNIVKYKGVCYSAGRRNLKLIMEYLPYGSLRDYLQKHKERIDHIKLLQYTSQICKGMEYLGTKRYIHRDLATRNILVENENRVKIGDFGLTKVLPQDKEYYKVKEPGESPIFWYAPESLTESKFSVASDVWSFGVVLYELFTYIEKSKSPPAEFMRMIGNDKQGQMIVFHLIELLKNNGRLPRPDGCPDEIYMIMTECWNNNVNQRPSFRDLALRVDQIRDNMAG
The settings on record: Ba/F3 cells; read-out: IC50 JAK2V617F-driven signaling; cited from earlier work.

For data set [4], the target named is T2, wild-type JAK2 (Homo sapiens, UniProt O60674). The settings on record: read-out: IC50 interleukin-3-stimulated wild-type JAK2-mediated signaling; cited from earlier work.
T2 sequence (O60674 whole entry, species assumed): as the sequence (O60674 whole entry V617F) above, with F617V counted along it
For data set [5], the target named is T2, wild-type JAK2. The settings on record: read-out: IC50 interleukin-3-stimulated wild-type JAK2-mediated cell proliferation; cited from earlier work.
Data set [6] relates to Ba/F3-JAK2V617F-GFP ascitic tumor cells. The settings on record: cited from earlier work.
The subject of data set [7] is Ba/F3-JAK2V617F-GFP tumor burden. The settings on record: cited from earlier work.
Another data set deals with SW1990. As to conditions: read-out: IC50 cell proliferation; cited from earlier work.
For data set [8], the system named is SW1990 human pancreas orthotopic tumor. As to conditions: in vivo; cited from earlier work.
A further data set deals with p38α MAPK (Homo sapiens, UniProt Q16539). As to conditions: cited from earlier work.
Chain of p38α MAPK (Q16539 whole entry, canonical isoform): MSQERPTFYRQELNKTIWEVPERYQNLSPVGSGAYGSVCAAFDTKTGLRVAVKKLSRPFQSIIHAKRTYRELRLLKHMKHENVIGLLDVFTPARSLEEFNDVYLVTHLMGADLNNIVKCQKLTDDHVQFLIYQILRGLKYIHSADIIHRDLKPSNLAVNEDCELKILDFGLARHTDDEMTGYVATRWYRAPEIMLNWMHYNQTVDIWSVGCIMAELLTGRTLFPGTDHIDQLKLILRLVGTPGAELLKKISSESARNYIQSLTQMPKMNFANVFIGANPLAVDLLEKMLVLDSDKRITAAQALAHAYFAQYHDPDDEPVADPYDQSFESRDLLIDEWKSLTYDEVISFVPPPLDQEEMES
A further data set addresses β isoform of p38 MAPK (Homo sapiens, UniProt Q15759). As to conditions: in vitro; cited from earlier work.
Data set [9] relates to phosphorylation of MK2 (Thr334). The settings on record: TNFα-stimulated HeLa cells; cited from earlier work.
Data set [10] shares this test system. The settings on record: anisomycin-induced mouse RAW264.7 macrophages; cited from earlier work.
For a further data set, the system named is TNFα secretion. As to conditions: LPS/IFNγ-stimulated macrophages; cited from earlier work.
For the next data set, the system named is phospho-MK2. As to conditions: cited from earlier work.
The nature of data set [11]: Tissue distribution of ganetespib in female CD-1 nu/nu mice bearing RERF human NSCLC xenografts. It is filed as in vivo. The source says: Tissue Distribution of Ganetespib in Female CD-1 Nu/Nu Mice Bearing RERF Human NSCLC Xenografts
To confirm the distribution of ganetespib in blood, livers, kidneys, brains, hearts, lungs and tumors after IV administration of ganetespib to female CD-1 nu/nu mice bearing RERF human NSCLC xenografts, and to examine metabolic profiles of ganetespib in plasma, red blood cells, and above tissues.
Animals: female CD-1 nu/nu mice bearing RERF human NSCLC xenografts (N=3/group)
Formulation: 10% DMSO, 18% Cremophor RH40, 3.6% dextrose solution (DRD)
Bleeding time points: 5 min, 6, 24 hr
Collected tissues: blood (plasma and red blood cells (RBC)), liver, kidneys, brain, heart, lung, tumor
Protein precipitation: 50 μL of 10 times diluted plasma or RBC+150 μL ACN (10 mM NH4OAc), vortexed and centrifuged at 10000 rpm for 8 min; 150 μL supernatant+150 μL water (10 mM NH4OAc)
Protein precipitation: 100 μL homogenized tissue (1:3 tissue: PBS buffer)+100 μL ACN (10 mM NH4OAc), vortexed and centrifuged at 10000 rpm for 8 min
Column: Agilent Zorbax Eclipse XDB-C18, 4.6×150 mm, 5 μm
Mobile phase: A: water containing 10 mM NH4OAc; B: 95% ACN containing 10 mM NH4OAc
Gradient: 95/5 A/B to 5/95 A/B in 10 min, total run time 15 min
Column: Phenomenex Synergi, 2.1×50 mm, 4 μm
Mobile phase: A: water containing 0.1% HCOOH; B: ACN containing 0.1% HCOOH
Gradient: 60/40 A/B to 5/95 A/B in 0.5 min, total run time 4 min

The subject of data set [12] is HER2. Briefly: in vitro HER2 assays. It is filed as cell-based. From the text:
This example illustrates how a HER2 degradation assay may be used as a test to determine and select Hsp90-targeting moieties suitable for use in SDC-TRAPs of the invention, and further illustrates the ability of SDC-TRAPs to target cells preferentially expressing Hsp90. Such a test may further be used to determine the Hsp90 binding ability of SDC-TRAPs of the invention, as well as through competitive binding assays and cell-based Hsp90 client protein degradation assays known in the art.
BT-474 cells are plated in the interior 60 wells of a 96 well black clear bottom plate (20,000 cells/well) in DMEM medium, with DMEM media in the surrounding 36 wells, and incubated at 37° C. with 5% CO2 overnight. On the second day, concentration response curve source plates are produced (10 point, 3-fold dilution of compounds in DMSO) followed by a 1:30 dilution in an intermediate dilution plate containing DMEM. Compound is transferred from the intermediate plate to the cell plate at a dilution of 1:10. The cells are then incubated at 37° C. with 5% CO2 for 24 hours.
Cells are then fixed in 4% phosphate-buffered paraformaldehyde for 30 minutes at room temperature and then permeabilized by washing five times with 0.1% Triton X-100 in PBS for 5 minutes at room temperature on a shaker. […] The raw data is normalized to DRAQS and the HER2 EC50 is calculated using XLfit™. […]

The values that follow come from patent publication US10376598B2, “Targeted therapeutics” (Madrigal Pharmaceuticals, Inc., priority 2013, dated 2019).

Read-outs that look alike come from different tables or passages of the source. A value given as a limit tells only on which side of the number the result lay.

Chain of β isoform of p38 MAPK (Q15759 whole entry, canonical isoform): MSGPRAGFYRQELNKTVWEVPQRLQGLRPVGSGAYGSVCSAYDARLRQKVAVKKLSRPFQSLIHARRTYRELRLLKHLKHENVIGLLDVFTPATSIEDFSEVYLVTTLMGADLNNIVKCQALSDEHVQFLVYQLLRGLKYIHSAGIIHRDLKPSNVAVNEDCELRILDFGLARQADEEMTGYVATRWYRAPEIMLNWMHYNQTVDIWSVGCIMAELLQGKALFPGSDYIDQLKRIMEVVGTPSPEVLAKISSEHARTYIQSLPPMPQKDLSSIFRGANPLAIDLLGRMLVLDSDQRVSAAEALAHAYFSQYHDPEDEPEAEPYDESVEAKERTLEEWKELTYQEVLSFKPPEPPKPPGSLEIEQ

As for `C=CCNC1=C2C[C@@H](C)C[C@H](OC)[C@H](O)[C@@H](C)/C=C(\C)[C@H](OC(N)=O)[C@@H](OC)/C=C\C=C(/C)C(=O)NC(=CC1=O)C2=O` [17-AAG], the “degradation of HER2” value in the data set with HER2 [1] is listed as “partial degradation of HER2”.
With `C[C@@H](Oc1ccc2[nH]nc(/C=C/c3cnn(CCO)c3)c2c1)c1c(Cl)cncc1Cl` [LY2874455, (R)-(E)-2-(4-(2-(5-(1-(3,5-Dichloropyridin-4-yl)ethoxy)-1H-indazol-3-yl)vinyl)-1H-pyrazol-1-yl) ethanol], the “in vitro and in vivo selectivity on inhibition of FGF-over VEGF-mediated target signaling” value in [2] was 6- to 9 fold.
With `CCN1CCN(Cc2ccc(Nc3ncc(F)c(-c4cc(F)c5nc(C)n(C(C)C)c5c4)n3)nc2)CC1.CS(=O)(=O)O` [LY2835219, 2-Pyrimidinamine, N-[5-[(4-ethyl-1-piperazinyl)methyl]-2-pyridinyl]-5-fluoro-4-[4-fluoro-2-methyl-1-(1-methylethyl)-1H-benzimidazol-6-yl]-, methanesulfonate (1:1)], the “percent of dose in brain” value in data set [3] is 0.5-3.9%.
With `Cc1cc(Nc2cc(CN3CCOCC3)c3nc(C)c(Cc4ccc(Cl)cc4F)n3n2)n[nH]1` [LY2784544, 3-(4-Chloro-2-fluorobenzyl)-2-methyl-N-(5-methyl-1H-pyrazol-3-yl)-8-(morpholin-4-ylmethyl)imidazo[1,2-b]pyridazin-6-amine], the IC50 at JAK2V617F is 20 nM; on wild-type JAK2 [4], 1180 nM; on wild-type JAK2 [5], 1310 nM. Also, in [6], the “TED50 inhibition of STATS phosphorylation” value was 12.7 mg/kg. For the same molecule, the “effect on erythroid progenitors, reticulocytes or platelets” value in data set [7] (in vivo) is on record as “no effect”. Besides, the “TED50 reduction of Ba/F3-JAK2V617F-GFP tumor burden” value in [7] (twice daily) is 13.7 mg/kg.
For the molecule `COc1cccc(OCCCN)c1-c1cc(Nc2cnc(C#N)cn2)n[nH]1` [LY2606368, 5-((5-(2-(3-aminopropoxy)-6-methoxyphenyl)-1H-pyrazol-3-yl)amino)pyrazine-2-carbonitrile], the IC50 in the data set with SW1990 was 1.5 nM. In [8], the “inhibition of metastasis to lymph node, spleen, and intestine” value is given as 100%; the “inhibition of primary tumor growth” value is given as “over 92%”.
With `CC(C)(C)Cn1c(N)nc2ccc(-c3[nH]c(C(C)(C)C)nc3-c3ccc(F)cc3)nc21` [LY2228820, 5-[2-tert-Butyl-4-(4-fluorophenyl)-1H-imidazol-5-yl]-3-(2,2-dimethylpropyl)-3H-imidazo[4,5-b]pyridin-2-amine dimethanesulfonate], the IC50 was 5.3 nM on p38α MAPK (in vitro, read-out: IC50 α isoform of p38 MAPK); 3.2 nM at β isoform of p38 MAPK; 8.1 nM in data set [9]; 35.3 nM in [10]; 6.3 nM with TNFα secretion. For the same molecule, the “selectivity for p38α MAPK versus 179 other kinases tested” value at p38α MAPK (including p38δ and γ isoforms) was above 1000 fold. Further, the “TMED70 phospho-MK2 inhibition in tumors” value with phospho-MK2 (mice transplanted with B16-F10 melanomas) is reported as 19.4 mg/kg. The “duration of significant target inhibition” value in the data set with phospho-MK2 (single 10 mg/kg oral dose) was 4 to 8 h. The “inhibition of phospho-MK2” value with phospho-MK2 (single 10 mg/kg oral dose) is above 40%.
On to `CC(C)c1cc(-c2nnc(O)n2-c2ccc3c(ccn3C)c2)c(O)cc1O` [ganetespib], for which, in [11] (5 min after 50 mg/kg IV), the concentration of ganetespib in tumor was 2350 nM. Further, the “mean concentration in plasma relative to RBC” value in [11] (5 min time point) was “about 10 times”. Also, in data set [11] (24 hr after 50 mg/kg IV), the “Concentration of ganetespib in plasma” value is “>LLOQ”. The same molecule returned an IC50 in the data set with HER2 [12] of around 30 nM.
